Results published in patent US10407381B2 (THE BOARD OF TRUSTEES OF THE UNIVERSITY OF ILLINOIS, priority 2015, dated 2019).
Like-named read-outs stand apart in the source and are kept apart here.

Key:
5-HT2B [1] = target: T1, 5-HT2B (Homo sapiens, UniProt P41595); details: background, reported values; cited from earlier work
Target sequence in this assay (P41595 whole entry, species assumed): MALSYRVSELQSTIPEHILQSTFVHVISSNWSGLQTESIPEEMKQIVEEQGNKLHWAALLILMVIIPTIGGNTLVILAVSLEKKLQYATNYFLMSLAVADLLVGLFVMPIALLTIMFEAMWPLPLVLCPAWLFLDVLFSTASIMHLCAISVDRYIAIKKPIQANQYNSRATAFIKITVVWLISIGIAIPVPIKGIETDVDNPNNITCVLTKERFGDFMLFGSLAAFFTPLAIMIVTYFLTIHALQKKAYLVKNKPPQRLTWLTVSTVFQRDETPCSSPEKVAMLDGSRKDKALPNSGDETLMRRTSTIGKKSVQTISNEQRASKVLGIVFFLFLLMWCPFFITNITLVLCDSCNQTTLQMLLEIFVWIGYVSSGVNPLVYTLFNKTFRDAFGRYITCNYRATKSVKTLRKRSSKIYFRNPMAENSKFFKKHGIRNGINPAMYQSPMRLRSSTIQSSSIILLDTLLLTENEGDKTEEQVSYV

5-HT2C receptor = target: T2, 5-HT2C receptor (Homo sapiens, UniProt P28335); details: cited from earlier work; for selectivity for 5-HT2C relative to 5-HT2B: 5-HT2C versus 5-HT2B
T2 sequence (P28335 33-458): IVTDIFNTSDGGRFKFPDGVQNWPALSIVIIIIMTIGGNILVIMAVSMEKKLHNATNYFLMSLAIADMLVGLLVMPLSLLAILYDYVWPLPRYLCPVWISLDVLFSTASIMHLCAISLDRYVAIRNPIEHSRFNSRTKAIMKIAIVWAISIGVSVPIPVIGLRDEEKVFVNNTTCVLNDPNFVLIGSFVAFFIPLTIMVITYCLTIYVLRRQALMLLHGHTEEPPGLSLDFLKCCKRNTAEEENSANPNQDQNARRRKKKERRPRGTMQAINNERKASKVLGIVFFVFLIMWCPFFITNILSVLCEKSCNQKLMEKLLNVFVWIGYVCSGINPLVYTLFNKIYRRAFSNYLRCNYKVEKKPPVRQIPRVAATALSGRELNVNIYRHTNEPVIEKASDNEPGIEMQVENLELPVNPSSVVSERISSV

5-HT2A [2] = target: T3, 5-HT2A (Homo sapiens, UniProt P28223); details: background, cited from earlier work
Target sequence in this assay (P28223 whole entry, species assumed): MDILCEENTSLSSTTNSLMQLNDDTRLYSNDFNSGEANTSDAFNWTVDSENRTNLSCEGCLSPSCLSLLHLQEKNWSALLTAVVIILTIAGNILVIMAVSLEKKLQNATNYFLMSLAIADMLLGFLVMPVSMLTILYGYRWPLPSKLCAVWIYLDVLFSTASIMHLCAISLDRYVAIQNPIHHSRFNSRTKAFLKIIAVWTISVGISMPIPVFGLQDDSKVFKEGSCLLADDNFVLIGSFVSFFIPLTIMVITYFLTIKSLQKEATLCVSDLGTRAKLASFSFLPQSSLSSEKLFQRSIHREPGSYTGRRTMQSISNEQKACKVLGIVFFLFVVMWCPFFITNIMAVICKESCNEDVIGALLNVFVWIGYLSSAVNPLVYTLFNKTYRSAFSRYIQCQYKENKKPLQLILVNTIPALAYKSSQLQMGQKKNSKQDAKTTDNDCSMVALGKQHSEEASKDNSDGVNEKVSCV

[3] = 10-60 mg/kg; cited from earlier work
rat 5-HT2C-INI = target: T4, rat 5-HT2C-INI (Rattus norvegicus, UniProt P08909); assay: Calcium flux (FLIPR) assay, rat 5-HT2C-INI receptors expressed on PO1C cells; format: cell-based; details: data acquired with rat 5-HT2C-INI receptors expressed on PO1C cells; for EC50: NA = no activity at 10 μM, read-out: EC50, nM 5-HT2C (footnote a)
T4 construct: expressed in transfected cells; host or cells: rat PO1C cell line
T4 sequence (P08909 33-460): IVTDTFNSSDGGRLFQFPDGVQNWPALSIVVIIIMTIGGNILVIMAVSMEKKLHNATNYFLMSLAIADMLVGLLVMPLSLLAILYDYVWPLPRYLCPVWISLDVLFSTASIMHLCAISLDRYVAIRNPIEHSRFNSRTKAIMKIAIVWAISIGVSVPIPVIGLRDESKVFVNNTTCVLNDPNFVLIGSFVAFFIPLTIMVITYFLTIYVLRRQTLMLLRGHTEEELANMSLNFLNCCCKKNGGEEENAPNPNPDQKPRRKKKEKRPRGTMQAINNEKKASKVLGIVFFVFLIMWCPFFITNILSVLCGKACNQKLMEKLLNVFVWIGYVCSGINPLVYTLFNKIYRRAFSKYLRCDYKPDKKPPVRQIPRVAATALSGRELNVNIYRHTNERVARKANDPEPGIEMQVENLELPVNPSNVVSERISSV
Protocol: Rat 5-HT2C-INI Receptors Expressed on PO1C Cells
Rat PO1C cell line stably expressing the rat 5-HT2C-INI was plated onto Poly-L-Lys-coated 384-well black clear bottom cell culture plates in DMEM 1% dialyzed FBS (12 000 cells/well). Preceding the experiment, culture medium was removed and 20 μl of assay buffer (20 mM Hepes, pH 7.40, Hanks' balanced salt solution, 2.5 mM probenecid, 1×FLIPR calcium dye) was added and cells incubated at 37° C. for 1 h. Serial dilution of each tested drugs were prepared at 3× final concentration and transfer to a 384-well plates. Cell and drug plates were placed in a FLIPR^TETRA fluorescence imaging plate reader ([…]) and programmed to read baseline for 10 sec (1 read/s) and then add 10 μl of drug/well and to read additional 120 sec. […] Data were plotted and normalized compared to 5-HT and regressed using sigmoidal dose-response function. Data of two independent experiments (n=2) conducted in quadruplicate are presented. Analyses were performed using the software GraphPad Prism 6.0.

C57BL/6J mice = assay: Amphetamine-stimulated activity test (open field), schizophrenia-like animal model; details: for influence on spontaneous activity, compound alone: 20 mg/kg i.p., 20-Veh groups; for AMPH-stimulated hyperlocomotion relative to the Veh-AMPH group: 10 or 20 mg/kg i.p., 3 mg/kg amphetamine, distance travelled 16-120 min, p-values<0.035; for dose dependence of suppression of AMPH hyperactivity: 10 versus 20 mg/kg i.p.
5-HT2A [4] = target: T3, 5-HT2A; assay: Calcium flux (FLIPR) assay, human 5-HT2A stably expressed in HEK-293 (Flp-In-293) cells; details: for EC50: EC50, nM 5-HT2A, NA = no activity at 10 μM; for EC50 / Emax, % 5-HT 5-HT2A: human 5-HT2A in HEK-293 cells, FLIPR; for Emax, % 5-HT 5-HT2A: normalized to 5-HT
Target sequence in this assay (P28223 whole entry): as the sequence (P28223 whole entry, species assumed) above

human 5-HT2C-INI = target: T5, human 5-HT2C-INI (Homo sapiens, UniProt P28335); assay: Calcium flux (FLIPR) assay, human 5-HT2C-INI stably expressed in HEK-293 (Flp-In-293) cells; details: for EC50: EC50, nM 5-HT2C, NA = no activity at 10 μM; for EC50 / Emax, % 5-HT 5-HT2C: human 5-HT2C-INI in HEK-293 cells, FLIPR; for Emax, % 5-HT 5-HT2C: normalized to 5-HT
T5 sequence (P28335 33-458): T2 sequence (P28335 33-458)

5-HT2B [5] = target: T1, 5-HT2B; assay: Calcium flux (FLIPR) assay, human 5-HT2B stably expressed in HEK-293 (Flp-In-293) cells; details: human 5-HT2B in HEK-293 cells; for EC50: EC50, nM 5-HT2B, NA = no activity at 10 μM; for Emax, % 5-HT 5-HT2B: normalized to 5-HT
Target sequence in this assay (P41595 whole entry): as the sequence (P41595 whole entry, species assumed) above

[6] = several animal models; cited from earlier work
[7] = clinical trials, compared to the placebo group; cited from earlier work

Cc1cccc(C2CC2CN)c1 (stereo not drawn)
EC50 (5-HT2B [1]): 65 nM
selectivity over 5-HT(2A) (5-HT2C receptor; 5-HT2C versus 5-HT2A): 120 fold
selectivity for 5-HT2C relative to 5-HT2B (5-HT2C receptor): 14 fold
EC50 (5-HT2C receptor; background, reported values): 4.8 nM
EC50 (5-HT2A [2]; reported values): 585 nM
antidepressant-like effects [3]: moderate antidepressant-like effects

CC(C)Oc1cc(F)c(Cl)cc1C1CC1CN (single isomer, unassigned; (+)) [(+)-Example 3, (+)-(2-(5-Chloro-4-fluoro-2-isopropoxyphenyl)cyclopropyl)methanamine]
Emax, % 5-HT 5-HT2C (footnote a) (rat 5-HT2C-INI): (91%) ^a % 5-HT
EC50 (rat 5-HT2C-INI): 56 nM

C=CCOc1ccc(F)cc1C1CC1CN (single isomer, unassigned; (+)) [(+)-Example 8, (+)-(2-(2-(Allyloxy)-5-fluorophenyl)cyclopropyl)methanamine]
influence on spontaneous activity, compound alone (C57BL/6J mice): little influence
AMPH-stimulated hyperlocomotion relative to the Veh-AMPH group (C57BL/6J mice): significantly reduced
dose dependence of suppression of AMPH hyperactivity (C57BL/6J mice): dose-dependently suppressed the hyperactivity
EC50 (5-HT2A [4]): 374 nM
Emax, % 5-HT 5-HT2A (5-HT2A [4]): (56%) % 5-HT
EC50 (human 5-HT2C-INI): 4.2 nM
Emax, % 5-HT 5-HT2C (human 5-HT2C-INI): (87%) % 5-HT

NCC1CC1c1cc(F)ccc1OCCF (single isomer, unassigned; (+)) [(+)-Example 10, (+)-(2-(5-Fluoro-2-(2-fluoroethoxy)phenyl)cyclopropyl)methanamine]
influence on spontaneous activity, compound alone (C57BL/6J mice): little influence
AMPH-stimulated hyperlocomotion relative to the Veh-AMPH group (C57BL/6J mice): significantly reduced
dose dependence of suppression of AMPH hyperactivity (C57BL/6J mice): not differentiated by dose
EC50 (5-HT2A [4]): 359 nM
Emax, % 5-HT 5-HT2A (5-HT2A [4]): (76%) % 5-HT
EC50 (human 5-HT2C-INI): 3.4 nM
Emax, % 5-HT 5-HT2C (human 5-HT2C-INI): (89%) % 5-HT

NCC1CC1c1cc(Cl)ccc1OCCF (single isomer, unassigned; (+)) [(+)-Example 19, (+)-(2-(5-Chloro-2-(2-fluoroethoxy)phenyl)cyclopropyl)methanamine]
AMPH-stimulated hyperlocomotion relative to the Veh-AMPH group (C57BL/6J mice): significantly reduced
dose dependence of suppression of AMPH hyperactivity (C57BL/6J mice): not differentiated by dose
EC50 (5-HT2B [5]): 632 nM
Emax, % 5-HT 5-HT2B (5-HT2B [5]): (31%) % 5-HT
EC50 (5-HT2A [4]): 1480 nM
Emax, % 5-HT 5-HT2A (5-HT2A [4]): (35%) % 5-HT
EC50 (human 5-HT2C-INI): 32 nM
Emax, % 5-HT 5-HT2C (human 5-HT2C-INI): (86%) % 5-HT

NCC1CC1c1cc(Cl)ccc1OCC(F)(F)F (single isomer, unassigned; (+)) [(+)-Example 22, (+)-(2-(5-Chloro-2-(2,2,2-trifluoroethoxy)phenyl)cyclopropyl)methanamine]
Emax, % 5-HT 5-HT2C (footnote a) (rat 5-HT2C-INI): (85%) ^a % 5-HT
EC50 (rat 5-HT2C-INI): 495 nM

C=C(F)COc1ccc(Cl)cc1C1CC1CN (single isomer, unassigned; (+)) [(+)-Example 25, (+)-(2-(5-Chloro-2-((2-fluoroallyl)oxy)phenyl)cyclopropyl)methanamine]
influence on spontaneous activity, compound alone (C57BL/6J mice): little influence
AMPH-stimulated hyperlocomotion relative to the Veh-AMPH group (C57BL/6J mice): significantly reduced
dose dependence of suppression of AMPH hyperactivity (C57BL/6J mice): dose-dependently suppressed the hyperactivity
EC50 (5-HT2B [5]): 1690 nM
Emax, % 5-HT 5-HT2B (5-HT2B [5]): (27%) % 5-HT
EC50 (human 5-HT2C-INI): 133 nM
Emax, % 5-HT 5-HT2C (human 5-HT2C-INI): (81%) % 5-HT

NCC1CC1c1cc(Cl)ccc1Oc1ccccc1 (single isomer, unassigned; (+)) [(+)-Example 27, (+)-(2-(5-Chloro-2-phenoxyphenyl)cyclopropyl)methanamine]
Emax, % 5-HT 5-HT2C (footnote a) (rat 5-HT2C-INI): (79%) ^a % 5-HT
EC50 (rat 5-HT2C-INI): 1800 nM

CC(C)Oc1cc(F)c(Cl)cc1C1CC1CN (single isomer, unassigned; (-)) [(−)-Example 3, (−)-(2-(5-Chloro-4-fluoro-2-isopropoxyphenyl)cyclopropyl)methanamine]
Emax, % 5-HT 5-HT2C (footnote a) (rat 5-HT2C-INI): (86%) ^a % 5-HT
EC50 (rat 5-HT2C-INI): 588 nM

NCC1CC1c1cc(Cl)ccc1Oc1ccccc1 (single isomer, unassigned; (-)) [(−)-Example 27, (−)-(2-(5-Chloro-2-phenoxyphenyl)cyclopropyl)methanamine]
Emax, % 5-HT 5-HT2C (footnote a) (rat 5-HT2C-INI): (42%) ^a % 5-HT
EC50 (rat 5-HT2C-INI): 3960 nM

NCC1CC1c1cc(Cl)ccc1OCc1ccccc1 (single isomer, unassigned; (-)) [(−)-Example 28, (−)-(2-(2-(benzyloxy)-5-chlorophenyl)cyclopropyl)methanamine]
Emax, % 5-HT 5-HT2C (footnote a) (rat 5-HT2C-INI): (51%) ^a % 5-HT
EC50 (rat 5-HT2C-INI): 1540 nM

Clc1cccc(COc2cncc(N3CCNCC3)n2)c1 [CP-809,101]
Emax at 5-HT2B (5-HT2B [1]): 57%
selectivity for 5-HT2C relative to 5-HT2B (5-HT2C receptor): about 600 fold
Emax at 5-HT2C (5-HT2C receptor; background, reported values): 93%

c1cc2c3c(c1)[C@H]1CCC[C@H]1N3CCNC2 [WAY-163909]
Emax at 5-HT2B (5-HT2B [1]): 40%
agonist activity at 5-HT2A (5-HT2A [2]; reported): no agonist activity
preclinical antipsychotic-like activity [6]: good preclinical antipsychotic-like activity

C[C@H]1CNCCc2ccc(Cl)cc21 [lorcaserin, reference compound]
Emax (5-HT2A [4]; read-out: 5-HT2A Emax Std. Error): 68%
incidence of cardiac valve disorders [7]: higher incidence of cardiac valve disorders
Emax, % 5-HT 5-HT2C (human 5-HT2C-INI): (99%) % 5-HT
Emax (human 5-HT2C-INI; read-out: 5-HT2C Emax Std. Error): 99%
